# System: mouse norovirus
# Assay: Mouse Norovirus (MNV) assay in RAW cells
# Settings: murine norovirus, Table 7
row,SMILES,EC50
1,Cc1nc(N)c2c(C(N)=O)cn([C@@H]3O[C@H](COP(=O)(O)O)[C@@H](O)[C@H]3O)c2n1 [Compound 71],3.15 µM
2,Cc1nc(N)c2c(C(N)=O)cn([C@@H]3O[C@H](COC(=O)[C@H](CC(C)C)NC(=O)OCC4c5ccccc5-c5ccccc54)[C@@H](O)[C@H]3O)c2n1 [Compound 76],16.4 µM
3,Cc1nc(N)c2c(C(N)=O)cn([C@@H]3O[C@H](COC(=O)[C@@H](N)CC(C)C)[C@@H](O)[C@H]3O)c2n1 [Compound 77],4.4 µM
4,Cc1nc(N)c2c(C(N)=O)cn([C@@H]3O[C@H](COP(=O)(N[C@@H](C)C(=O)OCc4ccccc4)Oc4ccccc4)[C@@H](O)[C@H]3O)c2n1 (stereo partly shown) [Compound 107],18.1 µM
5,COC(=O)[C@H](C)NP(=O)(OC[C@H]1O[C@@H](n2cc(C(N)=O)c3c(N)nc(C)nc32)[C@H](O)[C@@H]1O)Oc1ccccc1 (stereo partly shown) [Compound 111],21 µM

# Same assay, conditions: murine norovirus, Table 8; N/A = assayed but no EC50 value could be measured
row,SMILES,EC50
1,NC(=O)c1cn([C@@H]2O[C@H](CO)[C@@H](O)[C@H]2O)c2nc(N)nc(N)c12 [Compound 83],> 100 µM
2,Cc1nc(N)c2c(C(N)=O)cn([C@@H]3O[C@H](CO)[C@@H](O)[C@@]3(C)O)c2n1 [Compound 87],> 100 µM
3,N#Cc1nc(N)c2c(C(N)=O)cn([C@@H]3O[C@H](CO)[C@@H](O)[C@H]3O)c2n1 [Compound 89],> 100 µM
4,CC#Cc1nc(N)c2c(C(N)=O)cn([C@@H]3O[C@H](CO)[C@@H](O)[C@H]3O)c2n1 [Compound 90],> 100 µM
5,Cc1nc(N)c2c(C(N)=O)cn([C@H]3C[C@H](O)[C@@H](CO)O3)c2n1 [Compound 92],> 100 µM
6,Cc1nc(NO)c2c(C(N)=O)cn([C@@H]3O[C@H](CO)[C@@H](O)[C@H]3O)c2n1 [Compound 94],> 100 µM
7,Cc1nc(NN)c2c(C(N)=O)cn([C@@H]3O[C@H](CO)[C@@H](O)[C@H]3O)c2n1 [Compound 95],> 100 µM
8,Cc1nc(N)c2c(C(N)=O)cn([C@@H]3O[C@H](C)[C@@H](O)[C@H]3O)c2n1 [Compound 97],> 100 µM
9,Cc1nc(Cl)c2ccn(C[C@H](O)CO)c2n1 [Compound 98],> 100 µM
10,NC(=O)c1cn([C@@H]2O[C@H](CO)[C@@H](O)[C@H]2O)c2nc(CO)nc(N)c12 [Compound 99],> 100 µM
11,Cc1nc(N)c2c(C(N)=O)cn([C@@H]3O[C@H](CO)[C@@H](F)[C@H]3O)c2n1 [Compound 101],> 100 µM
12,Cc1nc(N)c2c(C(N)=O)cn([C@@H]3O[C@H](C(C)O)[C@@H](O)[C@H]3O)c2n1 (stereo partly shown) [Compound 102],> 100 µM
13,Cc1nc(N)c2c(C(N)=O)cn([C@@H]3O[C@@H](CO)[C@@H](O)[C@H]3O)c2n1 [Compound 109],> 100 µM
14,Cc1nc(N)c2c(C(N)=O)cn([C@H]3CCCO3)c2n1 [Compound 110],> 100 µM
15,Cc1nc(N)c2c(C(N)=O)cn([C@@H]3O[C@H](O)[C@@H](O)[C@H]3O)c2n1 [Compound 118],> 100 µM

# Next, values leading:
row,EC50,SMILES
1,> 100 µM,Cc1nc(N)c2c(C(N)=O)cn(C3(C)O[C@H](COC(=O)[C@@H](N)C(C)C)[C@@H](O)[C@H]3O)c2n1 (stereo partly shown) [Compound 62]
2,> 100 µM,Cc1nc(N)c2c(C(N)=O)cn([C@@H]3O[C@H](COC(=O)[C@@H](NC(=O)OCC4C5C=CC=CC5C5C=CC=CC54)C(C)C)[C@@H](O)[C@H]3O)c2n1 (stereo partly shown) [Compound 63]
3,> 100 µM,CCOP(=O)(COC(CO)Cn1cc(C(N)=O)c2c(N)nc(C)nc21)OCC (stereo not shown) [Compound 64]
4,> 100 µM,COc1ccc2cc([C@@H](C)C(=O)OC[C@H]3O[C@@H](n4cc(C(N)=O)c5c(N)nc(C)nc54)[C@@H]4OC(C)(C)O[C@@H]43)ccc2c1 [Compound 65]
5,> 100 µM,CCOP(=O)(COC[C@@H]1C=C[C@H](n2cc(C(N)=O)c3c(N)nc(C)nc32)O1)OCC [Compound 67]
6,> 100 µM,CCOP(=O)(CO[C@H]1O[C@@H](n2cc(C#N)c3c(N)nc(C)nc32)[C@H](O)[C@@H]1O)OCC [Compound 68]
7,> 100 µM,Cc1nc(N)c2c(C(N)=O)cn([C@@H]3O[C@H](OCP(=O)(O)O)[C@@H](O)[C@H]3O)c2n1 [Compound 70]
8,> 100 µM,CCOP(=O)(CO[C@H]1O[C@@H](n2cc(C(N)=O)c3c(N)nc(C)nc32)[C@H](O)[C@@H]1O)OCC [Compound 73]
9,> 100 µM,CCOP(=O)(C[C@H]1O[C@@H](n2cc(C(N)=O)c3c(N)nc(C)nc32)[C@H](O)[C@@H]1O)OCC [Compound 74]
10,> 100 µM,Cc1nc(N)c2c(C(N)=O)cn([C@@H]3O[C@H](CP(=O)(O)O)[C@@H](O)[C@H]3O)c2n1 [Compound 75]
11,> 100 µM,Cc1nc(N)c2c(C(N)=O)cn([C@@H]3O[C@@H]4OCP(=O)(O)O[C@H]4[C@H]3O)c2n1 [Compound 78]
12,> 100 µM,CCCCCCCCCCCCCCCCOCCCOP(=O)(O)OC[C@H]1O[C@@H](n2cc(C(N)=O)c3c(N)nc(C)nc32)[C@H](O)[C@@H]1O [Compound 79]
13,> 100 µM,Cc1nc(N)c2ccn([C@@H]3O[C@H](COCc4ccccc4)[C@@H](O)[C@H]3O)c2n1 [Compound 82]
14,> 100 µM,Cc1nc(N)c2c(S(=O)(=O)O)cn([C@@H]3O[C@H](CO)[C@@H](O)[C@H]3O)c2n1 [Compound 84]
15,> 100 µM,Cc1nc(N)c2c(C(=N)NO)cn([C@@H]3O[C@H](CO)[C@@H](O)[C@H]3O)c2n1 [Compound 85]
16,> 100 µM,COC(=O)C(OC[C@H]1O[C@@H](n2cc(C#N)c3c(N)nc(C)nc32)[C@H](O)[C@@H]1O)P(=O)(OC)OC (stereo partly shown) [Compound 86]
17,> 100 µM,Cc1nc(N)c2c(C(=N)N)cn([C@@H]3O[C@H](CO)[C@@H](O)[C@H]3O)c2n1 [Compound 91]
18,> 100 µM,Cc1nc(N)c2c(C(N)=O)cn([C@@H]3O[C@H](COC(=O)[C@@H](N)C(C)C)[C@@H](OC(=O)C(N)C(C)C)[C@@]3(C)O)c2n1 (stereo partly shown) [Compound 93]
19,> 100 µM,COC(=N)c1cn([C@@H]2O[C@@](CO)(N=[N+]=[N-])[C@@H](O)[C@H]2O)c2nc(C)nc(N)c12 [Compound 100]
20,> 100 µM,COC(=N)c1cn([C@@H]2O[C@H](COS(=O)(=O)CCCCl)[C@H]3OC(C)(C)O[C@H]32)c2nc(C)nc(N)c12 [Compound 103]
21,> 100 µM,COC(=N)c1cn([C@@H]2O[C@H](CN=[N+]=[N-])[C@@H](O)[C@H]2O)c2nc(C)nc(N)c12 [Compound 104]
22,> 100 µM,Cc1nc(N)c2c(C(N)=O)cn([C@@H]3O[C@@](CO)(N=[N+]=[N-])[C@@H](O)[C@H]3O)c2n1 [Compound 105]
23,> 100 µM,Cc1nc(N)c2c(C#N)cn([C@@H]3O[C@@](CO)(N=[N+]=[N-])[C@@H](O)[C@H]3O)c2n1 [Compound 106]
24,> 100 µM,Cc1nc(N)c2c(C(N)=O)cn([C@@H]3O[C@H](CN)[C@@H](O)[C@H]3O)c2n1 [Compound 108]
25,> 100 µM,Cc1nc(N)c2c(C(N)=O)cn([C@@H]3O[C@H](CO)[C@@H](N=[N+]=[N-])[C@H]3O)c2n1 [Compound 112]
26,> 100 µM,Cc1nc(N)c2c(C(N)=O)cn([C@@H]3O[C@H](CO)[C@@H](N)[C@H]3O)c2n1 [Compound 113]
27,> 100 µM,Cc1nc(N)c2c(C#N)cn([C@H]3C=C[C@@H](O)O3)c2n1 [Compound 114]
28,> 100 µM,CCOP(=O)(CO[C@@H]1C=C[C@H](n2cc(C#N)c3c(Cl)nc(C)nc32)O1)OCC [Compound 116]
29,> 100 µM,Cc1nc(Cl)c2c(C#N)cn([C@@H]3O[C@H](O)[C@@H](O)[C@H]3O)c2n1 [Compound 117]
